Experiments:
Assay type in all cases: in vivo
[1] = test system: Echinochloa crus-galli (ECHCG); test: Post-emergence herbicidal glasshouse test; settings: post-emergence, 250 g/ha, 13 days after application
Method: (§1) Seeds of a variety of test species are shown in standard soil in pots Amaranthus retoflexus (AMARE), Ipomoea hederacea (IPOHE), Solanum nigrum (SOLNI), Lolium perenne (LOLPE). Echinochloa crus-galli (ECHCG), Setaria faberi (SETFA)). After cultivation for one day (pre-emergence) or after 8 days cultivation (post-emergence) under controlled conditions in a glasshouse (at 24/16° C., day/night; 14 hours light; 65% humidity), the plants are sprayed with an aqueous spray solution derived from the formulation of the technical active ingredient in acetone/water (50:50) solution containing 0.5% Tween 20 (polyoxyethylene sorbitan monolaurate, CAS RN 9005-64-5). Compounds are applied at 250 g/ha unless otherwise stated. The test plants are then grown in a glasshouse under controlled conditions in a glasshouse (at 24/16° C., day/night; 14 hours light; 65% humidity) and watered twice daily. After 13 days for pre and post-emergence, the test is evaluated for the percentage damage caused to the plant. The biological activities are shown in the following table on a five-point scale (5=81-100%; 4=61-80%; 3=41-60%; 2=21-40%; 1=0-20%).
(§2) Using the experimental conditions outlined above, a further test is conducted to compare the herbicidal properties of the difluro containing compound (1.014) with a representative compound (C1) referred to in GB901553. The compounds are applied at 1000 g/ha and 500 g/ha. The test is evaluated for the percentage damage caused to the plant (% phytotoxicity).

[2] = test system: Ipomoea hederacea (IPOHE); test: Post-emergence herbicidal glasshouse test; settings: post-emergence, 250 g/ha, 13 days after application
Method: as §1, §2

[3] = test system: Amaranthus retoflexus (AMARE); test: Post-emergence herbicidal glasshouse test; settings: post-emergence, 250 g/ha, 13 days after application
Method: as §1, §2

[4] = test system: Echinochloa crus-galli (ECHCG); test: Pre-emergence herbicidal glasshouse test; settings: pre-emergence, 250 g/ha, 13 days after application
Method: as §1, §2

[5] = test system: Ipomoea hederacea (IPOHE); test: Pre-emergence herbicidal glasshouse test; settings: pre-emergence, 250 g/ha, 13 days after application
Method: as §1, §2

[6] = test system: Amaranthus retoflexus (AMARE); test: Pre-emergence herbicidal glasshouse test; settings: pre-emergence, 250 g/ha, 13 days after application
Method: as §1, §2

For `O=C(O)C(F)(F)c1c(Cl)cccc1Cl` [Compound 1.044], the “percentage damage caused to the plant, five-point scale, ECHCG” value (from here on “percentage damage caused … ECHCG”) [1] was 1 (1=0-20%), the “percentage damage caused to the plant, five-point scale, IPOHE” value (“percentage damage caused … IPOHE” below) [2] was 4 (4=61-80%) and the “percentage damage caused to the plant, five-point scale, AMARE” value (shortened to “percentage damage caused … AMARE”) [3] was 3 (3=41-60%). The “percentage damage caused … ECHCG” value [4] was 1 (1=0-20%), the “percentage damage caused … IPOHE” value [5] was 3 (3=41-60%) and the “percentage damage caused … AMARE” value [6] was 2 (2=21-40%).
With `O=C(O)C(F)(F)c1cccc(Cl)c1Br` [Compound 1.050] the “percentage damage caused … ECHCG” value [1] was 2 (2=21-40%), the “percentage damage caused … IPOHE” value [2] was 5 (5=81-100%) and the “percentage damage caused … AMARE” value [3] was 5 (5=81-100%). The “percentage damage caused … ECHCG” value [4] was 2 (2=21-40%), the “percentage damage caused … IPOHE” value [5] was 5 (5=81-100%) and the “percentage damage caused … AMARE” value [6] was 5 (5=81-100%).
For `O=C(O)C(F)(F)c1ccc(F)c(Cl)c1F` [Compound 1.051], the “percentage damage caused … ECHCG” value [1] was 1 (1=0-20%), the “percentage damage caused … IPOHE” value [2] was 4 (4=61-80%) and the “percentage damage caused … AMARE” value [3] was 5 (5=81-100%). The “percentage damage caused … ECHCG” value [4] was 1 (1=0-20%), the “percentage damage caused … IPOHE” value [5] was 5 (5=81-100%) and the “percentage damage caused … AMARE” value [6] was 3 (3=41-60%).
With `Cc1c(Cl)cccc1C(F)(F)C(=O)O` [Compound 1.058] the “percentage damage caused … ECHCG” value [1] was 3 (3=41-60%), the “percentage damage caused … IPOHE” value [2] was 5 (5=81-100%) and the “percentage damage caused … AMARE” value [3] was 5 (5=81-100%). The “percentage damage caused … ECHCG” value [4] was 3 (3=41-60%), the “percentage damage caused … IPOHE” value [5] was 5 (5=81-100%) and the “percentage damage caused … AMARE” value [6] was 5 (5=81-100%).
With `O=C(O)C(F)(F)c1cccc(C(F)(F)F)c1Cl` [Compound 1.059] the “percentage damage caused … ECHCG” value [1] was 3 (3=41-60%), the “percentage damage caused … IPOHE” value [2] was 5 (5=81-100%) and the “percentage damage caused … AMARE” value [3] was 5 (5=81-100%). For the same molecule, the “percentage damage caused … ECHCG” value [4] was 1 (1=0-20%), the “percentage damage caused … IPOHE” value [5] was 5 (5=81-100%) and the “percentage damage caused … AMARE” value [6] was 1 (1=0-20%).
For `O=C(O)C(F)(F)c1cccc(Cl)c1C(F)(F)F` [Compound 1.060], the “percentage damage caused … ECHCG” value [1] was 1 (1=0-20%), the “percentage damage caused … IPOHE” value [2] was 5 (5=81-100%) and the “percentage damage caused … AMARE” value [3] was 5 (5=81-100%). The “percentage damage caused … ECHCG” value [4] was 1 (1=0-20%), the “percentage damage caused … IPOHE” value [5] was 3 (3=41-60%) and the “percentage damage caused … AMARE” value [6] was 5 (5=81-100%).
`Cc1cccc(C(F)(F)C(=O)O)c1F.N` [Compound 1.061] was tested, and the “percentage damage caused … ECHCG” value [1] was 1 (1=0-20%), the “percentage damage caused … IPOHE” value [2] was 3 (3=41-60%) and the “percentage damage caused … AMARE” value [3] was 1 (1=0-20%). For the same molecule, the “percentage damage caused … ECHCG” value [4] was 1 (1=0-20%), the “percentage damage caused … IPOHE” value [5] was 1 (1=0-20%) and the “percentage damage caused … AMARE” value [6] was 3 (3=41-60%).
For `Cc1cccc(C(F)(F)C(=O)O)c1C(F)(F)F.N` [Compound 1.062], the “percentage damage caused … ECHCG” value [1] was 1 (1=0-20%), the “percentage damage caused … IPOHE” value [2] was 3 (3=41-60%) and the “percentage damage caused … AMARE” value [3] was 4 (4=61-80%). The “percentage damage caused … ECHCG” value [4] was 1 (1=0-20%), the “percentage damage caused … IPOHE” value [5] was 3 (3=41-60%) and the “percentage damage caused … AMARE” value [6] was 3 (3=41-60%).
`Cc1ccc(Cl)c(Cl)c1C(F)(F)C(=O)O.N` [Compound 1.063] was tested, and the “percentage damage caused … ECHCG” value [1] was 1 (1=0-20%), the “percentage damage caused … IPOHE” value [2] was 3 (3=41-60%) and the “percentage damage caused … AMARE” value [3] was 4 (4=61-80%). For the same molecule, the “percentage damage caused … ECHCG” value [4] was 1 (1=0-20%), the “percentage damage caused … IPOHE” value [5] was 1 (1=0-20%) and the “percentage damage caused … AMARE” value [6] was 1 (1=0-20%).

Source: patent US12319648B2, “Fluorinated phenylacetic acid derivatives in a weed control method” (SYNGENTA CROP PROTECTION AG, priority 2019, dated 2025)
